Data on 25 compounds can be found in ChEMBL document CHEMBL1129222, “Anti-AIDS agents. 291. Anti-HIV activity of modified podophyllotoxin derivatives” (Bioorg Med Chem Lett, 1997).

The test system of data set [1] is H9. As to the kind of experiment: Evaluation for anti-HIV activity using T cell line (H9). The conditions noted are these: Homo sapiens. It counts as functional, cell-based.
Data set [2] deals with H9. The experiment in a line: Cytotoxicity against H9 cell line. To be noted: Homo sapiens. It counts as functional, cell-based.
Data set [3] in a line: Therapeutic index (IC50/EC50). It counts as cell-based. The conditions noted are these: human, H9 cells; read-out: Therapeutic index.
The subject of data set [4] is H9. As to the kind of experiment: The compound was evaluated for cytotoxicity against H9 cell line; Toxic. It counts as toxicity, cell-based, Homo sapiens.
Data set [5] relates to H9. The experiment in a line: The compound was evaluated for anti-HIV activity using T cell line (H9). The conditions noted are these: Homo sapiens.
Data set [6] has as its system H9. As to the kind of experiment: The compound was evaluated for anti-HIV activity using T cell line (H9); No suppression. It counts as functional, cell-based, Homo sapiens.
Data set [7] deals with H9. As to the kind of experiment: The compound was evaluated for anti-HIV activity using T cell line (H9). To be noted: Homo sapiens. This is another data set of the same source.

Each structure is given as a SMILES string. Bounds are passed on as bounds.

As a reminder, the EC50 is the concentration at which the effect is half-maximal. Read a high EC50 as weaker potency. A word on the IC50: it is the concentration that inhibits the measured activity by half. Higher therefore signals lower potency. For `COc1cc([C@@H]2c3cc4c(cc3[C@@H](Nc3ccc(F)cc3)[C@H]3COC[C@H]23)OCO4)cc(OC)c1O`, in the data set on H9 [1], a half-maximal effect (EC50) was put at 120 nM. The compound further returned an IC50 in the data set on H9 [2] of 1500 nM. In addition, the selectivity ratio in data set [3] turned out to be 12.5.
As for `CCOC(=O)c1ccc(N[C@@H]2c3cc(OC)c(OC)cc3[C@@H](c3cc(OC)c(O)c(OC)c3)[C@H]3C(=O)OC[C@@H]32)cc1`, the EC50 in the data set on H9 [1] was < 1 nM. The IC50 with H9 [2] is 120 nM. In addition, the selectivity ratio in data set [3] was > 120.
Turning to `COc1cc([C@@H]2c3cc4c(cc3[C@H](O)[C@H]3COC(=O)[C@H]23)OCO4)cc(OC)c1OC` [PODOFILOX], in the data set on H9 [4], the IC50 result is “Toxic”.
As to `COc1cc([C@@H]2c3cc4c(cc3C(=O)[C@H]3COC(=O)[C@H]23)OCO4)cc(O)c1O`, the IC50 in the data set on H9 [2] stood at 9000 nM. Further, the selectivity ratio in data set [3] is 3. Also, a half-maximal response with H9 [5] (EC50) required 3000 nM.
As to `COc1cc([C@@H]2c3cc4c(cc3[C@@H](Nc3ccc(F)cc3)[C@H]3COC(O)[C@H]23)OCO4)cc(OC)c1O` (some centres not stated), the EC50 in the data set on H9 [1] was found to be 450 nM. In addition, in the data set on H9 [2], the half-inhibitory concentration (IC50) amounted to 1800 nM. Also, the selectivity ratio in data set [3] came out at 4.
Take `CCS[C@@H]1c2cc3c(cc2[C@@H](c2cc(OC)c(O)c(OC)c2)[C@H]2C(=O)OC[C@@H]21)OCO3`: the EC50 result with H9 [6] is given as “Not Active”. Further, the IC50 in the data set on H9 [2] came to 1900 nM.
With `COc1cc([C@@H]2c3cc4c(cc3C(=O)[C@H]3COC(=O)[C@H]23)OCO4)cc(OC)c1O`, in the data set with H9 [1], the EC50 came out at 800 nM. The compound further yielded an IC50 in the data set on H9 [2] of 1700 nM. In data set [3], the selectivity ratio came out at 2.1.
On to `COc1cc([C@@H]2c3cc4c(cc3[C@@H](Nc3ccc(F)cc3)[C@H]3COC(=O)[C@H]23)OCO4)cc(OC)c1O`, for which, in the data set on H9 [1], the response was half-maximal at 100 nM (EC50). The same compound registered an IC50 in the data set on H9 [2] of 1000 nM. The selectivity ratio in data set [3] worked out at 10.
Turning to `COc1cc([C@@H]2c3cc(O)c(O)cc3[C@@H](O)[C@H]3COC(=O)[C@H]23)cc(OC)c1O`, the EC50 entry with H9 [6] is reported as “Not Active”. This compound also returned an IC50 with H9 [2] of 45000 nM.
As for `COc1cc([C@@H]2c3cc4c(cc3[C@@H](Nc3ccc(F)cc3)[C@H]3COC(=O)[C@H]23)OCO4)cc(OC)c1OC`, the EC50 with H9 [1] was determined as 450 nM. Further, in the data set with H9 [2], the IC50 is 1500 nM. Moreover, the selectivity ratio in data set [3] was 3.3.
In the case of `COc1cc2c(cc1OC)[C@@H](Nc1ccc(C#N)cc1)[C@H]1COC(=O)[C@@H]1[C@@H]2c1cc(OC)c(O)c(OC)c1`, the EC50 with H9 [1] is < 1 nM. In the data set with H9 [2], this compound returned an IC50 of 141 nM. In addition, in data set [3], the selectivity ratio was > 141.
Consider `COc1cc2c(cc1OC)[C@@H](Nc1ccc([N+](=O)[O-])cc1)[C@H]1COC(=O)[C@@H]1[C@@H]2c1cc(OC)c(O)c(OC)c1`, for which, in the data set on H9 [2], the IC50 came to 158 nM. The selectivity ratio in data set [3] is > 158. Moreover, the EC50 with H9 [7] is < 1 nM.
For `COc1cc([C@@H]2c3cc4c(cc3[C@@H](Oc3ccc(F)cc3)[C@H]3COC(=O)[C@H]23)OCO4)cc(OC)c1O`, the midpoint of the response in the data set on H9 [1], the EC50, lay at 450 nM. The compound further returned an IC50 with H9 [2] of 800 nM. In data set [3], the selectivity ratio was 1.8.
With `CCS[C@@H]1c2cc3c(cc2[C@@H](c2cc(OC)c(OC)c(OC)c2)[C@H]2C(=O)OC[C@@H]21)OCO3`, the EC50 in the data set with H9 [1] was determined as 160 nM. Also, the IC50 with H9 [2] is 320 nM. Moreover, the selectivity ratio in data set [3] is 2.
In turn, `COc1cc([C@@H]2c3cc(O)c(O)cc3[C@@H](Nc3ccc(F)cc3)[C@H]3COC(=O)[C@H]23)cc(OC)c1O` gave an EC50 in the data set on H9 [1] of 7000 nM. The compound further displayed an IC50 with H9 [2] of 29000 nM. In data set [3], the selectivity ratio came out at 4.1.
With `COc1cc([C@@H]2c3cc4c(cc3[C@@H](O)[C@H]3COC(=O)[C@H]23)OCO4)cc(OC)c1O` [4'-DEMETHYLEPIPODOPHYLLOTOXIN], the EC50 result in the data set with H9 [6] is given as “Not Active”. The compound further gave an IC50 with H9 [2] of 70 nM.
Compound `COc1cc2c(cc1OC)[C@@H](Nc1ccc(F)cc1)[C@H]1COC(=O)[C@@H]1[C@@H]2c1cc(OC)c(OC)c(OC)c1` yielded an EC50 in the data set with H9 [1] of 2200 nM. Besides, the IC50 with H9 [2] was found to be 9700 nM. Also, in data set [3], the selectivity ratio was determined as 4.4.
The compound `COc1cc([C@@H]2c3cc4c(cc3[C@@H](O)[C@H]3COC(=O)[C@H]23)OCO4)cc(N)c1N` returned an EC50 in the data set with H9 [1] of 1700 nM. This compound showed an IC50 in the data set with H9 [2] of 6600 nM. For the same compound, the selectivity ratio in data set [3] came out at 3.9.
For the compound `COc1cc2c(cc1OC)[C@@H](Nc1ccc(F)cc1)[C@H]1COC(=O)[C@@H]1[C@@H]2c1cc(OC)c(O)c(OC)c1`, the EC50 with H9 [1] is < 1 nM. The compound also returned an IC50 in the data set with H9 [2] of 166 nM. In addition, the selectivity ratio in data set [3] was > 166.
Consider `COc1cc([C@@H]2c3cc(O)c(O)cc3[C@H](O)[C@H]3COC(=O)[C@H]23)cc(OC)c1O`, for which the EC50 entry with H9 [6] is reported as “Not Active”. In the data set on H9 [2], this compound showed an IC50 of 1850 nM.
For `COc1cc([C@@H]2c3cc4c(cc3[C@@H](Nc3ccc([N+](=O)[O-])cc3)[C@H]3COC(=O)[C@H]23)OCO4)cc(OC)c1O`, the EC50 in the data set on H9 [1] was < 1.28 nM. For the same compound, in the data set on H9 [2], it took 70 nM to reach half-maximal inhibition (IC50). Besides, the selectivity ratio in data set [3] was determined as 55.8.
Consider `COc1cc([C@@H]2c3cc4c(cc3[C@@H](Sc3ccc(O)cc3)[C@H]3COC(=O)[C@H]23)OCO4)cc(OC)c1O`, for which, in the data set with H9 [1], a half-maximal response (EC50) required 800 nM. Also, 1700 nM corresponded to half-maximal inhibition in the data set with H9 [2] (IC50). Besides, in data set [3], the selectivity ratio was 2.1.
`Cc1cn([C@H]2C[C@H](N=[N+]=[N-])[C@@H](CO)O2)c(=O)[nH]c1=O` [ZIDOVUDINE] returned an EC50 in the data set on H9 [1] of 9 nM. The IC50 in the data set with H9 [2] turned out to be 500000 nM.
In the case of `CCN(CC)CCN[C@@H]1c2cc3c(cc2[C@@H](c2cc(OC)c(O)c(OC)c2)[C@H]2C(=O)OC[C@@H]21)OCO3`, it took 10000 nM to reach a half-maximal effect in the data set with H9 [1] (EC50). Besides, the IC50 with H9 [2] came out at 8000 nM. Also, the selectivity ratio in data set [3] was 0.8.
Take `CCN(CC)[C@@H]1c2cc3c(cc2[C@@H](c2cc(OC)c(O)c(OC)c2)[C@H]2C(=O)OC[C@@H]21)OCO3.Cl`: the EC50 entry with H9 [6] is “No supperssion”. Moreover, in the data set with H9 [2], the IC50 is > 100000 nM.
